Results reported in US5571836A, “Viral attachment inhibitors” (priority 1995, dated 1996).
Where a name gives a salt, the structure may show the parent alone.

Tests used:
[1] = tested on: influenza virus USSR/90/77; test: Fetuin binding inhibition assay, influenza virus USSR/90/77; settings: for A^i (absorbance): 492 nm
[2] = tested on: influenza virus Chile/1/83; test: Fetuin binding inhibition assay, influenza virus Chile/1/83; settings: for A^i (absorbance): 492 nm
[3] = tested on: influenza virus Taiwan/1/86; test: Fetuin binding inhibition assay, influenza virus Taiwan/1/86; settings: for A^i (absorbance): 492 nm
influenza virus X-31 = test: Fetuin binding inhibition assay, influenza virus X-31; settings: for A^i (absorbance): 492 nm
[4] = tested on: influenza virus England/321/77; test: Fetuin binding inhibition assay, influenza virus England/321/77; settings: for A^i (absorbance): 492 nm
[5] = tested on: influenza virus USSR/2/85; test: Fetuin binding inhibition assay, influenza virus USSR/2/85; settings: for A^i (absorbance): 492 nm
[6] = tested on: influenza virus USSR/3/85; test: Fetuin binding inhibition assay, influenza virus USSR/3/85; settings: for A^i (absorbance): 492 nm
[7] = tested on: influenza virus B/Hong Kong/8/73; test: Fetuin binding inhibition assay, influenza virus B/Hong Kong/8/73; settings: for A^i (absorbance): 492 nm
[8] = tested on: influenza virus B/Singapore/222/79; test: Fetuin binding inhibition assay, influenza virus B/Singapore/222/79; settings: for A^i (absorbance): 492 nm
[9] = tested on: influenza virus B/USSR/100/83; test: Fetuin binding inhibition assay, influenza virus B/USSR/100/83; settings: for A^i (absorbance): 492 nm
[10] = tested on: influenza virus Port Chalmers/1/73; test: Fetuin binding inhibition assay, influenza virus Port Chalmers/1/73; settings: for A^i (absorbance): 492 nm
[11] = tested on: influenza virus Victoria/3/75; test: Fetuin binding inhibition assay, influenza virus Victoria/3/75; settings: for A^i (absorbance): 492 nm
[12] = tested on: influenza virus Texas/1/77; test: Fetuin binding inhibition assay, influenza virus Texas/1/77; settings: for A^i (absorbance): 492 nm
[13] = tested on: influenza virus Philippines/2/82; test: Fetuin binding inhibition assay, influenza virus Philippines/2/82; settings: for A^i (absorbance): 492 nm
[14] = assay type: physicochemical; settings: control solutions without enzyme
Method: Compound (IV) was incubated at 37° C. with Vibrio cholerae neuraminidase (450 U/ml) in 0.1M acetate buffer, pH 5.6, containing 0.9% NaCi and 0.1% CaCl2. Neuraminidase cleavage was determined on aliquots taken at intervals by TLC analysis (Merck silica gel plates in propanol/ethanol/25% aqueous ammonia, 2:2:1). Spots were developed by charring the plates with 3% H3 PO4 at 150° C. and quantitated densitometrically. The results are depicted in The FIGURE (v).

influenza viruses = test: Fetuin binding inhibition assay, influenza virus strains overall

CC(=S)NC1C(O)CC(OCc2ccccc2)(C(=O)O)OC1C(O)C(O)CO [IV, benzyl 3,5-dideoxy5-thioacetamido-α-D-glycero-D-galacto-nonulopyranosidonicacid (sodium salt)]
-lgKd(i) ([1]; 1.28 mM sialoside): 3.2 | A^i (absorbance) ([1]; 1.28 mM sialoside): 0.41 | -lgKd(i) ([1]; 2.56 mM sialoside): 3.2 | A^i (absorbance) ([1]; 2.56 mM sialoside): 0.23 | -lgKd(i) ([1]; .08 mM sialoside): 3.1 | A^i (absorbance) ([1]; .08 mM sialoside): 0.94 | -lgKd(i) ([1]; .16 mM sialoside): 3.2 | A^i (absorbance) ([1]; .16 mM sialoside): 0.84 | -lgKd(i) ([1]; .32 mM sialoside): 3.2 | A^i (absorbance) ([1]; .32 mM sialoside): 0.73 | -lgKd(i) ([1]; .64 mM sialoside): 3.2 | A^i (absorbance) ([1]; .64 mM sialoside): 0.6 | -lgKd ± SD ([1]; mean over concentrations): 3.1 ± 0.09 | -lgKd(i) ([2]; 1.28 mM sialoside): 3.6 | A^i (absorbance) ([2]; 1.28 mM sialoside): 0.36 | -lgKd(i) ([2]; 2.56 mM sialoside): 3.5 | A^i (absorbance) ([2]; 2.56 mM sialoside): 0.25 | -lgKd(i) ([2]; .08 mM sialoside): 3.5 | A^i (absorbance) ([2]; .08 mM sialoside): 1.27 | -lgKd(i) ([2]; .16 mM sialoside): 3.5 | A^i (absorbance) ([2]; .16 mM sialoside): 1.14 | -lgKd(i) ([2]; .32 mM sialoside): 3.5 | A^i (absorbance) ([2]; .32 mM sialoside): 0.89 | -lgKd(i) ([2]; .64 mM sialoside): 3.5 | A^i (absorbance) ([2]; .64 mM sialoside): 0.63 | -lgKd ± SD ([2]; mean over concentrations): 3.5 ± 0.04 | -lgKd(i) ([3]; 1.28 mM sialoside): 3.2 | A^i (absorbance) ([3]; 1.28 mM sialoside): 0.33 | -lgKd(i) ([3]; 2.56 mM sialoside): 3.2 | A^i (absorbance) ([3]; 2.56 mM sialoside): 0.21 | -lgKd(i) ([3]; .08 mM sialoside): 3.3 | A^i (absorbance) ([3]; .08 mM sialoside): 0.68 | -lgKd(i) ([3]; .16 mM sialoside): 3.3 | A^i (absorbance) ([3]; .16 mM sialoside): 0.62 | -lgKd(i) ([3]; .32 mM sialoside): 3.2 | A^i (absorbance) ([3]; .32 mM sialoside): 0.55 | -lgKd(i) ([3]; .64 mM sialoside): 3.1 | A^i (absorbance) ([3]; .64 mM sialoside): 0.47 | -lgKd ± SD ([3]; mean over concentrations): 3.2 ± 0.08 | -lgKd(i) (influenza virus X-31; 1.28 mM sialoside): 3.3 | A^i (absorbance) (influenza virus X-31; 1.28 mM sialoside): 0.34 | -lgKd(i) (influenza virus X-31; 2.56 mM sialoside): 3.2 | A^i (absorbance) (influenza virus X-31; 2.56 mM sialoside): 0.24 | -lgKd(i) (influenza virus X-31; .08 mM sialoside): 3.2 | A^i (absorbance) (influenza virus X-31; .08 mM sialoside): 0.86 | -lgKd(i) (influenza virus X-31; .16 mM sialoside): 3.4 | A^i (absorbance) (influenza virus X-31; .16 mM sialoside): 0.72 | -lgKd(i) (influenza virus X-31; .32 mM sialoside): 3.3 | A^i (absorbance) (influenza virus X-31; .32 mM sialoside): 0.65 | -lgKd(i) (influenza virus X-31; .64 mM sialoside): 3.3 | A^i (absorbance) (influenza virus X-31; .64 mM sialoside): 0.51 | -lgKd ± SD (influenza virus X-31; mean over concentrations): 3.3 ± 0.08 | -lgKd(i) ([4]; 1.28 mM sialoside): 3.7 | A^i (absorbance) ([4]; 1.28 mM sialoside): 0.21 | -lgKd(i) ([4]; 2.56 mM sialoside): 3.5 | A^i (absorbance) ([4]; 2.56 mM sialoside): 0.16 | -lgKd(i) ([4]; .08 mM sialoside): 3.4 | A^i (absorbance) ([4]; .08 mM sialoside): 0.98 | -lgKd(i) ([4]; .16 mM sialoside): 3.7 | A^i (absorbance) ([4]; .16 mM sialoside): 0.73 | -lgKd(i) ([4]; .32 mM sialoside): 3.7 | A^i (absorbance) ([4]; .32 mM sialoside): 0.56 | -lgKd(i) ([4]; .64 mM sialoside): 3.7 | A^i (absorbance) ([4]; .64 mM sialoside): 0.37 | -lgKd ± SD ([4]; mean over concentrations): 3.6 ± 0.13 | -lgKd(i) ([5]; 1.28 mM sialoside): 2.6 | A^i (absorbance) ([5]; 1.28 mM sialoside): 0.23 | -lgKd(i) ([5]; 2.56 mM sialoside): 2.5 | A^i (absorbance) ([5]; 2.56 mM sialoside): 0.21 | -lgKd(i) ([5]; .64 mM sialoside): 2.6 | A^i (absorbance) ([5]; .64 mM sialoside): 0.28 | -lgKd ± SD ([5]; mean over concentrations): 2.6 ± 0.06 | -lgKd(i) ([6]; 1.28 mM sialoside): 3.6 | A^i (absorbance) ([6]; 1.28 mM sialoside): 0.32 | -lgKd(i) ([6]; 2.56 mM sialoside): 3.8 | A^i (absorbance) ([6]; 2.56 mM sialoside): 0.12 | -lgKd(i) ([6]; .08 mM sialoside): 3.8 | A^i (absorbance) ([6]; .08 mM sialoside): 1.05 | -lgKd(i) ([6]; .16 mM sialoside): 3.8 | A^i (absorbance) ([6]; .16 mM sialoside): 0.81 | -lgKd(i) ([6]; .32 mM sialoside): 3.8 | A^i (absorbance) ([6]; .32 mM sialoside): 0.62 | -lgKd(i) ([6]; .64 mM sialoside): 3.7 | A^i (absorbance) ([6]; .64 mM sialoside): 0.43 | -lgKd ± SD ([6]; mean over concentrations): 3.8 ± 0.08 | -lgKd(i) ([7]; 1.28 mM sialoside): 2.6 | A^i (absorbance) ([7]; 1.28 mM sialoside): 0.46 | -lgKd(i) ([7]; 2.56 mM sialoside): 2.7 | A^i (absorbance) ([7]; 2.56 mM sialoside): 0.32 | -lgKd(i) ([7]; .64 mM sialoside): 2.5 | A^i (absorbance) ([7]; .64 mM sialoside): 0.54 | -lgKd ± SD ([7]; mean over concentrations): 2.6 ± 0.1 | -lgKd(i) ([8]; 1.28 mM sialoside): 3.6 | A^i (absorbance) ([8]; 1.28 mM sialoside): 0.18 | -lgKd(i) ([8]; 2.56 mM sialoside): 3.7 | A^i (absorbance) ([8]; 2.56 mM sialoside): 0.09 | -lgKd(i) ([8]; .32 mM sialoside): 3.2 | A^i (absorbance) ([8]; .32 mM sialoside): 0.56 | -lgKd(i) ([8]; .64 mM sialoside): 3.5 | A^i (absorbance) ([8]; .64 mM sialoside): 0.35 | -lgKd ± SD ([8]; mean over concentrations): 3.5 ± 0.2 | -lgKd(i) ([9]; 1.28 mM sialoside): 3.7 | A^i (absorbance) ([9]; 1.28 mM sialoside): 0.15 | -lgKd(i) ([9]; 2.56 mM sialoside): 3.7 | A^i (absorbance) ([9]; 2.56 mM sialoside): 0.08 | -lgKd(i) ([9]; .16 mM sialoside): 3.3 | A^i (absorbance) ([9]; .16 mM sialoside): 0.52 | -lgKd(i) ([9]; .32 mM sialoside): 3.5 | A^i (absorbance) ([9]; .32 mM sialoside): 0.40 | -lgKd(i) ([9]; .64 mM sialoside): 3.7 | A^i (absorbance) ([9]; .64 mM sialoside): 0.25 | -lgKd ± SD ([9]; mean over concentrations): 3.6 ± 0.2 | -lgKd(i) ([10]; 1.60 mM sialoside): 3.2 | A^i (absorbance) ([10]; 1.60 mM sialoside): 0.25 | -lgKd(i) ([10]; .05 mM sialoside): 3.2 | A^i (absorbance) ([10]; .05 mM sialoside): 0.55 | -lgKd(i) ([10]; .10 mM sialoside): 3.4 | A^i (absorbance) ([10]; .10 mM sialoside): 0.51 | -lgKd(i) ([10]; .20 mM sialoside): 3.4 | A^i (absorbance) ([10]; .20 mM sialoside): 0.47 | -lgKd(i) ([10]; .40 mM sialoside): 3.3 | A^i (absorbance) ([10]; .40 mM sialoside): 0.42 | -lgKd(i) ([10]; .80 mM sialoside): 3.1 | A^i (absorbance) ([10]; .80 mM sialoside): 0.40 | -lgKd ± SD ([10]; mean over concentrations): 3.3 ± 0.1 | -lgKd(i) ([11]; 1.60 mM sialoside): 3.3 | A^i (absorbance) ([11]; 1.60 mM sialoside): 0.35 | -lgKd(i) ([11]; .05 mM sialoside): 3.3 | A^i (absorbance) ([11]; .05 mM sialoside): 0.71 | -lgKd(i) ([11]; .10 mM sialoside): 3.3 | A^i (absorbance) ([11]; .10 mM sialoside): 0.69 | -lgKd(i) ([11]; .20 mM sialoside): 3.5 | A^i (absorbance) ([11]; .20 mM sialoside): 0.61 | -lgKd(i) ([11]; .40 mM sialoside): 3.4 | A^i (absorbance) ([11]; .40 mM sialoside): 0.56 | -lgKd(i) ([11]; .80 mM sialoside): 3.4 | A^i (absorbance) ([11]; .80 mM sialoside): 0.46 | -lgKd ± SD ([11]; mean over concentrations): 3.4 ± 0.08 | -lgKd(i) ([12]; 1.60 mM sialoside): 4.0 | A^i (absorbance) ([12]; 1.60 mM sialoside): 0.35 | -lgKd(i) ([12]; .05 mM sialoside): 3.8 | A^i (absorbance) ([12]; .05 mM sialoside): 1.0 | -lgKd(i) ([12]; .10 mM sialoside): 4.1 | A^i (absorbance) ([12]; .10 mM sialoside): 0.9 | -lgKd(i) ([12]; .20 mM sialoside): 4.0 | A^i (absorbance) ([12]; .20 mM sialoside): 0.83 | -lgKd(i) ([12]; .40 mM sialoside): 4.0 | A^i (absorbance) ([12]; .40 mM sialoside): 0.70 | -lgKd(i) ([12]; .80 mM sialoside): 3.9 | A^i (absorbance) ([12]; .80 mM sialoside): 0.55 | -lgKd ± SD ([12]; mean over concentrations): 4.0 ± 0.1 | -lgKd(i) ([13]; 1.60 mM sialoside): 4.1 | A^i (absorbance) ([13]; 1.60 mM sialoside): 0.20 | -lgKd(i) ([13]; .05 mM sialoside): 4.0 | A^i (absorbance) ([13]; .05 mM sialoside): 0.75 | -lgKd(i) ([13]; .10 mM sialoside): 4.4 | A^i (absorbance) ([13]; .10 mM sialoside): 0.59 | -lgKd(i) ([13]; .20 mM sialoside): 4.1 | A^i (absorbance) ([13]; .20 mM sialoside): 0.56 | -lgKd(i) ([13]; .40 mM sialoside): 4.1 | A^i (absorbance) ([13]; .40 mM sialoside): 0.43 | -lgKd(i) ([13]; .80 mM sialoside): 4.1 | A^i (absorbance) ([13]; .80 mM sialoside): 0.32 | -lgKd ± SD ([13]; mean over concentrations): 4.1 | Stability in the absence of enzyme [14]: at least 23 hours | Inhibition of virus strains (influenza viruses): inhibits some virus strains better than its analog
